Values joined by “and” are separate entries in the source; they are usually repeats but may differ in a detail not shown here. Identical values can stand only once. Values belong to the compound of their own block, whether it stands above or below them. Active and inactive are the calls of the source.
Columns and labels:
Cytochrome P450 2D6 = Cytochrome P450 2D6 (Homo sapiens, UniProt P10635);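 also: CYP2D6 member of a cytochrome P450 panel assay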
[1] = inhibitors of intracellular T. cruzi replication, confirmation, NIH3T3 host cells, beta-gal luminescence (AID 2044); format: functional, cell-based;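 also: intracellular parasites grown in NIH/3T3 mouse fibroblasts as host cells; luminescent beta-galactosidase reporter signal from transgenic T. cruzi replicating inside host cells; inhibitors lower the luminescence signal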
[2] = cytotoxicity toward NIH3T3 fibroblasts, dose response, counter-screen, cell-based, ATP luminescence, mouse fibroblasts (AID 2010); format: functional;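 also: cells exposed to compound for about 90 hours before reading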
Cytochrome P450 1A2 = target: T1, Cytochrome P450 1A2 (Homo sapiens, UniProt P05177);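 also: PubChem cytochrome P450 panel assay, CYP1A2 panel member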
T1 sequence (P05177 whole entry): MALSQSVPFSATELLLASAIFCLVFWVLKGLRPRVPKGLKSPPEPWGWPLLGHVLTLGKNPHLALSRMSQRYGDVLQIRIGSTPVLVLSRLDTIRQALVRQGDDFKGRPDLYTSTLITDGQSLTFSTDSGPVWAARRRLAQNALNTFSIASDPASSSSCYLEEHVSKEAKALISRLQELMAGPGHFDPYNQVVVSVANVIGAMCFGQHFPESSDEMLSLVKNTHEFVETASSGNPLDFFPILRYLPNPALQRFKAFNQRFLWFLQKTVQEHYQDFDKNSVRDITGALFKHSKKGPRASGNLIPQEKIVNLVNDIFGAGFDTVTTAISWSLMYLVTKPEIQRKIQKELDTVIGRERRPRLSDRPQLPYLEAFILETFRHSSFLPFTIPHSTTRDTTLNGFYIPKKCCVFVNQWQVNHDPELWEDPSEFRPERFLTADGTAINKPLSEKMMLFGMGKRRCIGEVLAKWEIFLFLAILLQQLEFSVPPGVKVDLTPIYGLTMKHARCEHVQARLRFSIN

Cytochrome P450 2C9 = Cytochrome P450 2C9 (Homo sapiens, UniProt P11712)
Chain of Cytochrome P450 2C9 (P11712 whole entry): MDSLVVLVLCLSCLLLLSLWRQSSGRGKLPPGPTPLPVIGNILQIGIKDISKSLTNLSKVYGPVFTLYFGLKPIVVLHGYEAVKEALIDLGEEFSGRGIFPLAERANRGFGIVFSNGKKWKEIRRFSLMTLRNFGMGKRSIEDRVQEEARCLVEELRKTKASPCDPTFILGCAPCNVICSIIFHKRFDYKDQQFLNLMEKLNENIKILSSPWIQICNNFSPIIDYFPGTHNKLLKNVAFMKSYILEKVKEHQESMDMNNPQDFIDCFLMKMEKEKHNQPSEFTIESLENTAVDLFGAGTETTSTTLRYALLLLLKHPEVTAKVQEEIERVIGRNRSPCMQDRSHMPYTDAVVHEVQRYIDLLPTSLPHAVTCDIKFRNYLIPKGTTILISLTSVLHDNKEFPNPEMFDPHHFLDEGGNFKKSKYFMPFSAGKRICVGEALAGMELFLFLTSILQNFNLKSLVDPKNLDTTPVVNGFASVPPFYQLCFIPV

[3] = Luminescence Cell-Based Dose Retest to Confirm Inhibitors of Cancer Stem Cells. [Related pubchem assays (depositor defined):AID2717, AID2721]; format: functional; conditions: Homo sapiens
INS1 = assay: beta cell apoptosis inhibitors, cytokine rescue, dose response, luminescence, retest (AID 449756); format: functional, cell-based; conditions: Rattus norvegicus;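 also: cell death triggered by IL-1 beta plus TNF-alpha plus IFN-gamma mixture; protective hits raise ATP signal compared with cytokine alone wells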
[4] = test system: Streptococcus sp. 'group A'; assay: growth inhibition of control SK(-) GAS strain, dose response, counter-screen for streptokinase expression inhibitor project, luminescence, kanamycin, BacTiterGlo, confirmation (AID 1900); format: functional, organism-based
Streptococcus = assay: Group A Streptococcus viability loss, dose response, counter-screen for streptokinase expression inhibitor project, luminescence, BacTiterGlo (AID 1915); format: functional, organism-based;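 also: potency for reduction of bacterial viability or growth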

Chain of Cytochrome P450 2D6 (P10635 whole entry): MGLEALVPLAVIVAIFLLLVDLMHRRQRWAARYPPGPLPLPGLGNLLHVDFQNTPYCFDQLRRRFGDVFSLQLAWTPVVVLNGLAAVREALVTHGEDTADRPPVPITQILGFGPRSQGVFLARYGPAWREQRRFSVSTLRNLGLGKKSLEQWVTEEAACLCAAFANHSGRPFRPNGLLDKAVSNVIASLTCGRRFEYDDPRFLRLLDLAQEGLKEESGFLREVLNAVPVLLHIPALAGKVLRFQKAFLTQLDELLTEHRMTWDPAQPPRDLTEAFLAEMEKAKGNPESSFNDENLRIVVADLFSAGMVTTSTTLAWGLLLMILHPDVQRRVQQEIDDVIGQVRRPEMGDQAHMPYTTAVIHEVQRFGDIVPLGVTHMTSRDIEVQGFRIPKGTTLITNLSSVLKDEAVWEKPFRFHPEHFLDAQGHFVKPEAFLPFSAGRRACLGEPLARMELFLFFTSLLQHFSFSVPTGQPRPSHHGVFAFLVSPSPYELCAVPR

AC50 (Cytochrome P450 2D6): 12.6 µM (inconclusive)
Structure (SMILES): C[N+]1(C)CCC(=C(c2ccccc2)c2ccccc2)CC1

Structure (SMILES): CC1(C)CC(NCCN2CCN(C3=CC(=C(C#N)C#N)CC(C)(C)C3)CC2)=CC(=C(C#N)C#N)C1
EC50 [1]: 1.31 µM (active)
EC50 [2]: > 60 µM (not active)

AC50 (Cytochrome P450 2D6): 12.6 µM (inconclusive)
AC50 (Cytochrome P450 1A2): 25.1 µM (inconclusive)
Structure (SMILES): [O-][S+](Cc1ccc(Br)cc1)Cc1nnc(SCc2ccc(Cl)cc2)n1-c1ccccc1 (stereo unspecified)

AC50 (Cytochrome P450 2D6): 15.8 µM (inconclusive)
AC50 (Cytochrome P450 2C9): 22.4 µM (inconclusive)
Structure (SMILES): O=C(/C=C\NCC(=O)c1ccccc1)c1ccc(F)cc1

AC50 (Cytochrome P450 2D6): 31.6 µM (inconclusive)
AC50 (Cytochrome P450 1A2): 12.6 µM (inconclusive)
Structure (SMILES): COc1cccc(Cn2c(=O)c(CCc3ccccc3)nc3cnc(N4CCNCC4)nc32)c1

Structure (SMILES): O=C(NCc1cccs1)c1cc(-c2ccncc2)nc2ccc(Br)cc12
EC50 [1]: 2.66 µM (active)
EC50 [2]: > 60 µM (not active)

AC50 (Cytochrome P450 2C9): 25.1 µM (inconclusive)
Structure (SMILES): COc1cccc(C2=NOC(C(=O)Nc3cccnc3)C2)c1 (stereo unspecified)

Structure (SMILES): CCn1c(N2CCN(S(=O)(=O)c3ccc(F)cc3)CC2)nc2ccccc21
AC50 [3]: > 195 µM (inactive)

AC50 (Cytochrome P450 2C9): 3.16 µM (inconclusive)
Structure (SMILES): O=c1c(CCc2ccccc2)nc2cnc(N3CCOCC3)nc2n1Cc1cccs1

Structure (SMILES): O=P(Oc1ccccc1)(Oc1ccccc1)N1CCN(c2ccc(F)cc2)CC1
AC50 (INS1): 19.4 µM (active)

Structure (SMILES): O=C(Oc1ccccc1)N1CCC2(CCN(Cc3ccncc3)CC2)CC1
AC50 (Cytochrome P450 1A2): 25.1 µM (inconclusive)

Structure (SMILES): Fc1ccc(CN2CCCN(Cc3nc(-c4ccc5c(c4)OCO5)no3)CC2)cc1
EC50 [1]: 0.103 µM (active)
EC50 [2]: > 60 µM (inconclusive)

Structure (SMILES): O=C(NCC1CCCCC1)c1cc2ccccc2cc1O
AC50 [3]: 5.19 µM (active)

AC50 (Cytochrome P450 2C9): 20 µM (inconclusive)
Structure (SMILES): COc1ccc(-n2c(S)nnc2CNC(=O)c2ccc(S(=O)(=O)N3CCCC3)cc2)cc1

Structure (SMILES): CC1CCN(C(=O)C(=O)c2cn(CC(=O)N3CCCCCC3)c3ccccc23)CC1
EC50 [1]: 1.26 µM (active)
EC50 [2]: > 60 µM (not active)

AC50 (Cytochrome P450 2D6): 39.8 µM (inconclusive)
Structure (SMILES): CN(C)c1ncc2ncc(=O)n(CCc3ccccc3)c2n1

AC50 (Cytochrome P450 2D6): 12.6 µM (inconclusive)
Structure (SMILES): FC(F)(F)c1cc(CN2CCCC3(CCNCC3)C2)cc(C(F)(F)F)c1

Structure (SMILES): S=C(Nc1cccc(Br)c1)N1CCn2cccc2C1c1cccnc1 (stereo unspecified)
EC50 [1]: 1.78 µM (active)
EC50 [2]: > 60 µM (not active)

Structure (SMILES): COC(=O)c1ccc(NC(=O)CCN2CCN(Cc3ccccc3)CC2)cc1
EC50 [1]: 0.123 µM (active)
EC50 [2]: > 60 µM (inconclusive)

Structure (SMILES): O=C(COc1ccc(F)cc1Cl)Nc1cc(S(=O)(=O)N2CCOCC2)ccc1N1CCCCC1
EC50 [1]: 2.56 µM (active)
EC50 [2]: > 60 µM (not active)

Structure (SMILES): CC(C)=C[C@H]1[C@@H](C(=O)OCc2cc3c(cc2Cl)OCO3)C1(C)C
AC50 (Cytochrome P450 2D6): 5.01 µM (inconclusive)
AC50 (Cytochrome P450 1A2): 0.794 µM (inconclusive)
AC50 (Cytochrome P450 2C9): 3.16 µM (inconclusive)

AC50 (Cytochrome P450 2D6): 25.1 µM (inconclusive)
Structure (SMILES): O=C(c1ccco1)N1CCC[C@@]2(CCN(c3cccc(-c4ccccc4)c3)C2)C1

Structure (SMILES): O=C(CSc1ncnc2c1nnn2Cc1ccc(F)cc1)NC1CCCC1
EC50 [1]: 3.93 µM (active)
EC50 [2]: > 30 µM (not active)

AC50 (Cytochrome P450 1A2): 28.2 µM (inconclusive)
AC50 (Cytochrome P450 2C9): 0.0708 µM (inconclusive)
Structure (SMILES): C=CCN1C(=O)CN=C1Nc1ccccc1

AC50 (Cytochrome P450 2C9): 6.31 µM (inconclusive)
Structure (SMILES): Cc1ccc(-n2c(C)cc(C(=O)CSc3n[nH]c(N)n3)c2C)cc1

Structure (SMILES): Cc1cc2c(NCCc3ccccc3)ncnc2s1
AC50 (INS1): 1.98 µM (active)

Structure (SMILES): COc1cc2c(cc1NC(=O)c1cccc(S(=O)(=O)N(C)C)c1)oc1ccccc12
AC50 [3]: 2.54 µM (active)

Structure (SMILES): O=[N+]([O-])c1cccc(S(=O)(=O)N2CCC(c3nc(-c4ccncc4)no3)CC2)c1
EC50 [1]: 1.85 µM (active)
EC50 [2]: > 30 µM (not active)

Structure (SMILES): CC(Nc1nc(N2CCCCC2)nc2ccccc12)c1ccccc1 (stereo unspecified)
EC50 [1]: 0.773 µM (active)
EC50 [2]: 9.37 µM (active)

Structure (SMILES): COc1ccccc1/C=C(/CC(=O)NCc1ccc2c(c1)OCO2)c1nc2ccccc2s1
EC50 [1]: 2.19 µM (active)
EC50 [2]: > 60 µM (not active)

AC50 (Cytochrome P450 1A2): 5.01 µM (inconclusive)
Structure (SMILES): CN1CC[C@H](CN2c3ccccc3Sc3ccccc32)C1

AC50 (Cytochrome P450 2D6): 2.51 µM (inconclusive)
Structure (SMILES): COc1ccc(-n2nnnc2SCC(=O)Nc2ccccc2)cc1

Structure (SMILES): CCN(CC)S(=O)(=O)c1ccc(N2CCN(c3ccccc3OC)CC2)c(N)c1
AC50 (INS1): 3.55 µM (active)

Structure (SMILES): CCN1C(=O)C(CC(=O)Nc2ccc(F)cc2)N(CCCN2CCN(c3ccc(F)cc3)CC2)C1=S (stereo unspecified)
AC50 [3]: 3.1 µM (active)

Structure (SMILES): CCN(CC)c1ccc(S(=O)(=O)N2CCCCC2)cc1NC(=O)C1=COCCO1
EC50 [1]: 7.54 µM (active)
EC50 [2]: > 60 µM (not active)

AC50 (Cytochrome P450 2D6): 10 µM (inconclusive)
AC50 (Cytochrome P450 2C9): 1 µM (inconclusive)
Structure (SMILES): COc1cccc(-c2nc(NCc3ccccc3OC)c3ccccc3n2)c1

Structure (SMILES): CC(C)=CCC12Oc3cc(O)ccc3C1(O)Oc1cc3c(c(O)c1C2=O)C=CC(C)(C)O3 (stereo unspecified)
EC50 [4]: 3.32 µM (active)
EC50 (Streptococcus): 3.92 µM (active)

Structure (SMILES): CSc1cccc(NC(=S)N(CCCN2CCCC2)Cc2cccn2Cc2ccc(Cl)cc2)c1
EC50 [1]: 2.25 µM (active)
EC50 [2]: > 60 µM (not active)

Structure (SMILES): COc1ccccc1NS(=O)(=O)c1cc(NC(=O)Nc2ccc(Cl)cc2Cl)ccc1N1CCCCC1
EC50 [1]: 1.58 µM (active)

AC50 (Cytochrome P450 1A2): 25.1 µM (inconclusive)
Structure (SMILES): CN1CCN(S(=O)(=O)c2cc([N+](=O)[O-])ccc2N2CCCCCC2)CC1

Structure (SMILES): CCOc1ccccc1N1CCN(c2ncnc3scc(-c4ccc(OC)cc4)c23)CC1
EC50 [1]: 2.44 µM (active)
EC50 [2]: > 60 µM (not active)

Structure (SMILES): CCC(=O)c1cc(F)c(N2CCN(S(=O)(=O)c3ccc(C)cc3)CC2)cc1C
EC50 [1]: 2.68 µM (active)
EC50 [2]: > 60 µM (not active)

Structure (SMILES): CCOc1cc(N2CCOCC2)c(OCC)cc1NC(=O)c1ccc2ccccc2n1
EC50 [1]: 2.63 µM (active)
EC50 [2]: 7.58 µM (active)

AC50 (Cytochrome P450 2D6): 0.0891 µM (inconclusive)
Structure (SMILES): CCC(=O)Nc1ccccc1C(=O)OCC(=O)c1cccc2ccccc12

Structure (SMILES): Cc1cc(C)c(OCC(O)CNC(C)(C)C)c(C)c1 (stereo unspecified)
AC50 (INS1): > 120 µM (inactive)

AC50 (Cytochrome P450 2C9): 20 µM (inconclusive)
Structure (SMILES): Cc1cnc(NC(=O)CSc2ccc(Cl)cc2)s1

AC50 (Cytochrome P450 1A2): 20 µM (inconclusive)
Structure (SMILES): CN(C)C(=O)c1ccc(-c2nc(-n3ccnc3)c3ccccc3n2)cc1

Structure (SMILES): CCOC(=O)C1(Cc2cccc(OC)c2)CCCN(Cc2c(C)nn(C(C)C)c2C)C1 (stereo unspecified)
EC50 [1]: 1.19 µM (active)
EC50 [2]: > 60 µM (not active)

Structure (SMILES): Cc1ccc(-c2nc3cc(Br)cnc3nc2-c2ccc(C)cc2)cc1
EC50 [1]: 2.68 µM (active)
EC50 [2]: > 60 µM (not active)

Structure (SMILES): CC(=O)c1c(C)n(CC(=O)NCc2ccco2)c2ccccc12
AC50 (INS1): > 260 µM (inactive)

Structure (SMILES): C=C[C@@H]1c2cccc(C)c2N(S(=O)(=O)c2ccc(C)cc2)[C@H](c2ccc(OC(C)=O)cc2)C1(C#N)C#N
AC50 [3]: 5.13 µM (active)

AC50 (Cytochrome P450 1A2): 22.4 µM (inconclusive)
Structure (SMILES): Cc1cccc(NC(NC(=O)c2cccnc2)C(Cl)(Cl)Cl)c1 (stereo unspecified)

Structure (SMILES): O=C1C=C(c2ccc(F)cc2OCc2ccccc2)C[C@@H](c2ccc(F)cc2)C1
AC50 [3]: 0.964 µM (active)

Structure (SMILES): O=C(NCCOCCOCCNC(=O)c1cccnc1)c1cccnc1
AC50 (INS1): 2.55 µM (active)

AC50 (Cytochrome P450 2C9): 8.91 µM (inconclusive)
Structure (SMILES): O=C(Cn1nnc(-c2ccccc2)n1)OCc1ccccc1

Structure (SMILES): CCCOc1ccc(-c2nc(N3CCN(CC)CC3)c3ccccc3n2)cc1
AC50 [3]: 5.57 µM (active)

Structure (SMILES): COc1ccc(Sc2ccc(-c3nc4cnccn4c3NC3CCCCC3)cc2OC)cc1
AC50 [3]: 2.93 µM (active)

Structure (SMILES): CCCCCCSc1cc(-c2nc3ccc(C)cn3c2NCCCC)ccc1OC
AC50 [3]: 5.12 µM (active)
AC50 (INS1): 7.09 µM (active)

AC50 (Cytochrome P450 1A2): 2 µM (inconclusive)
AC50 (Cytochrome P450 2C9): 31.6 µM (inconclusive)
Structure (SMILES): Sc1nnc(C2CCCCC2)n1/N=C/c1cccs1

AC50 (Cytochrome P450 2D6): 20 µM (inconclusive)
Structure (SMILES): CS(=O)(=O)Nc1cccc(-c2cncnc2NCc2ccccc2)c1

Structure (SMILES): NC(=NCc1ccccc1)NC(=O)c1nc(Cl)c(N)nc1N [BENZAMIL]
AC50 (Cytochrome P450 1A2): 12.6 µM (inconclusive) and 10 µM (inconclusive)

AC50 (Cytochrome P450 1A2): 15.8 µM (inconclusive)
Structure (SMILES): O=C1c2ccccc2C(=O)C1c1ccccc1 [PHENINDIONE]

Structure (SMILES): c1cc(CN2CCCCC2)cc(OCCCNc2nc3ccccc3s2)c1 [ZOLANTIDINE]
AC50 (Cytochrome P450 1A2): 31.6 µM (inconclusive) and 15.8 µM (inconclusive)

Reference: ChEMBL document CHEMBL1201862, “PubChem BioAssay data set” (2004)
